Structures can show the parent of a compound that is named as a salt.
System: patients with Alzheimer's type dementia
Assay: Case reports, Mild Cognitive Impairment (MCI) and Dementia (Example 1)
Format: in vivo, human
Conditions: Patient 1B, 7 year history of Alzheimer's type dementia
Text: Patient 1A was an elderly person with history of impairment of cognitive function. Presumptive diagnosis of possible dementia of Alzheimers type.
Patient 1B was an elderly retired person with a 7 year history of Alzheimer's type dementia treated with the cholinesterase inhibitor Donepezil. […] Their cognitive function has gradually deteriorated since this time. […] Their reading was more fluent being better able to follow the meaning of the text. There was also improvement in their Stroop Test particularly in part three, the more cognitively demanding where their accuracy improved from 50 to 90%.

Compound | subjective cognitive functioning and ADAS-cog
COc1cc2c(cc1OC)C(=O)C(CC1CCN(Cc3ccccc3)CC1)C2 (stereo not shown) [Donepezil] | significant improvement in their subjective cognitive functioning

System: patients with autism / ASD / communication disorder
Assay: Case reports, Autism and other Pervasive Development Disorders (Example 6)
Format: in vivo, human
Conditions: Patient 6, ASD; 50 mg daily
Text: Patient 6A: Adult, diagnosed in childhood with autism and ADHD. A long history of behavioural disturbance with frequent episodes of violence despite treatment with high-dose antipsychotic medication. […] The high-dose antipsychotic medication has been reduced without any associated loss of recent benefit. […] A history of behavioural disturbance and educational impairment. […] Patient 6C was an adult, diagnosed in childhood with autism and ADHD with a history of behavioural disturbance and educational impairment. […] Patient 6D: Adult, diagnosed in childhood with autism, ADHD and antisocial personality traits. […] Patient C's conversation became more appropriate and consistent together with reported improvements in significant relationships. […] Patient 6E was an adult, diagnosed with communication disorder and major depression. […] Patient 6F was an adult with ASD. […] The patient's conversation became more appropriate and consistent and improvements in significant relationships were reported. A reduction in the reliance on alcohol to alleviate anxiety in social situations was observed. […] Sodium valproate was withdrawn and improvement was noted. […] Patient 6G was as adult, diagnosed in childhood with ASD. […] Sodium valproate was withdrawn. […] This has also been associated with improvements in reading and verbal understanding. These benefits have been sustained in some situations for three years. Although difficult to be objective, there seems to be good evidence of ongoing improvement. […] Improvements in coordination, in fine and gross motor control have been reported and improvement in gait which frequently is a significant issue for individuals with autistic disorders.

Compound | behaviour, verbal and non-verbal communication
CCCC(CCC)C(=O)O.[Na] [sodium valproate, sodium di-n-propylacetic acid] | significant improvement in behaviour, verbal and non-verbal communication

Same assay, conditions: Patient 6; 25 mg daily

Compound | reintroduction at lower dose
CCCC(CCC)C(=O)O.[Na] [sodium valproate, sodium di-n-propylacetic acid] | successfully reintroduced

Same assay, conditions: Patient 6; 50 mg daily

Compound | adverse effects within three days
CCCC(CCC)C(=O)O.[Na] [sodium valproate, sodium di-n-propylacetic acid] | increasing cognitive slowing, general malaise and tiredness

Same assay, conditions: Patient 6E, communication disorder and major depression; 50 mg

Compound | communication
CCCC(CCC)C(=O)O.[Na] [sodium valproate, sodium di-n-propylacetic acid] | significant improvement in communication

Same assay, conditions: Patient 6E; 25 mg daily

Compound | communication
CCCC(CCC)C(=O)O.[Na] [sodium valproate, sodium di-n-propylacetic acid] | sustained improvement in the ability to communicate with less effort

Same assay, conditions: Patient 6E; medication ceased

Compound | benefits when medication ceased
CCCC(CCC)C(=O)O.[Na] [sodium valproate, sodium di-n-propylacetic acid] | initial benefits were lost

Same assay, conditions: Patient 6G; 25 mg on alternate days

Compound | communication, eye contact, motor tics, social engagement
CCCC(CCC)C(=O)O.[Na] [sodium valproate, sodium di-n-propylacetic acid] | sustained improvement in the communication, eye contact during dialogue, reduction in motor tics and greater social engagement and independently motivated activity

Same assay, conditions: Patient 6G; 50 mg daily

Compound | communication and other symptoms of ASD | side-effects
CCCC(CCC)C(=O)O.[Na] [sodium valproate, sodium di-n-propylacetic acid] | improvement in communication and other symptoms of ASD | low mood and irritability

System: mood stabilisation or epileptic symptoms or events
Assay: not given
Conditions: in vivo; cited from earlier work

Compound | Minimum typical dose/day effective for mood stabilisation or treatment of epileptic symptoms or events [mg/kg daily]
CN1C(=O)CC(=O)N(c2ccccc2)c2cc(Cl)ccc21 [Clobazam] | 5

Same assay, conditions: per day; cited from earlier work

Compound | Minimum typical dose/day effective for mood stabilisation or treatment of epileptic symptoms or events
CCC1(c2ccc(N)cc2)CCC(=O)NC1=O (stereo not shown) [Aminoglutethimide] | 125 mg
CCC1(c2ccccc2)C(=O)NC(=O)NC1=O.CNC(C)CC1CCCCC1 [Barbexaclone] | 200 mg in divided doses
CCC[C@@H]1CC(=O)N([C@@H](CC)C(N)=O)C1 [Brivaracetam] | 100 mg
NC(=O)N1c2ccccc2C=Cc2ccccc21 [Carbamazepine] | 400 mg
O=C1CN=C(c2ccccc2Cl)c2cc([N+](=O)[O-])ccc2N1 [Clonazepam] | 1 mg
CCN1C(=O)OC(C)(C)C1=O [Ethadione] | 1000 mg
CCC1(C)CC(=O)NC1=O (stereo not shown) [Ethosuximide] | 1000 mg
CCN1C(=O)NC(c2ccccc2)C1=O (stereo not shown) [Ethotoin] | 1000 mg
NC(=O)OCC(COC(N)=O)c1ccccc1 [Felbamate] | 1200 mg
O=C1NC(c2ccccc2)(c2ccccc2)C(=O)N1COP(=O)(O)O [Fosphenytoin Sodium] | 10 mg/kg
NCC1(CC(=O)O)CCCCC1 [Gabapentin, 2-[1-(aminomethyl)cyclohexyl]acetic acid] | 900 mg
COC[C@@H](NC(C)=O)C(=O)NCc1ccccc1 [Lacosamide] | 200 mg
Nc1nnc(-c2cccc(Cl)c2Cl)c(N)n1 [Lamotrigine, 3,5-diamino-6-(2,3-dichlorophenyl)-1,2,4-triazine] | 100 mg
CC[C@@H](C(N)=O)N1CCCC1=O [Levetiracetam] | 1000 mg
COC1=CC(=O)OC1C(O)c1ccccc1Cl (stereo not shown) [Losigamone] | 1500 mg
CCC1(c2ccccc2)NC(=O)N(C)C1=O (stereo not shown) [Mephenytoin] | 200 mg

Compound | Minimum typical dose/day effective for mood stabilisation or treatment of epileptic symptoms or events
CCC1(c2ccccc2)NC(=O)N(C)C1=O (stereo not shown) [Methoin] | 1000 mg
CN1C(=O)CC(C)(c2ccccc2)C1=O (stereo not shown) [Methsuximide] | 300 mg
NC(=O)N1c2ccccc2CC(=O)c2ccccc21 [Oxcarbazepine] | 600 mg
CCC1(C)OC(=O)N(C)C1=O (stereo not shown) [Paramethadione] | 300 mg
N#Cc1ccccc1-c1cc(-c2ccccn2)cn(-c2ccccc2)c1=O [Perampanel] | 2 mg
NC(=O)NC(=O)Cc1ccccc1 [Phenacemide] | 500 mg
CCC(C(=O)NC(N)=O)c1ccccc1 (stereo not shown) [Pheneturide] | 600 mg
CN1C(=O)CC(c2ccccc2)C1=O (stereo not shown) [Phensuximide] | 1000 mg
CC(C)C[C@H](CN)CC(=O)O [Pregabalin, (S)-3-(aminomethyl)-5-methylhexanoic acid] | 300 mg
CCC1(c2ccccc2)C(=O)NCNC1=O [Primidone] | 750 mg
NS(=O)(=O)c1ccc(N2CCCCS2(=O)=O)cc1 [Sultiame] | 200 mg
Cc1ccsc1C(=CCCN1CCC[C@@H](C(=O)O)C1)c1sccc1C [Tiagabine Hydrochloride] | 30 mg
CC1(C)O[C@@H]2[C@@H](CO[C@@]3(COS(N)(=O)=O)OC(C)(C)O[C@@H]23)O1 [Topiramate, 2,3:4,5-Bis-O-(1-methylethylidene)-beta-D-fructopyranose sulfamate] | 100 mg
CN1C(=O)OC(C)(C)C1=O [Trimethadione] | 900 mg
C=CC(N)CCC(=O)O (stereo not shown) [Vigabatrin] | 1000 mg
NS(=O)(=O)Cc1noc2ccccc12 [Zonisamide] | 200 mg

Reference: patent publication US20140142140A1, “PHARMACEUTICAL COMPOSITION FOR NEUROLOGICAL DISORDERS” (priority 2011, published 2014)
